The test concerns Candida albicans. The test can be described thus: Candida albicans bioassay. The test is classed as cell-based. To be noted: bioassay used to monitor HPLC fractions. How it is done:
In carrying out the reaction, Compound A, either as a purified compound or as a partially purified sample obtained from the deacylation of Compound B, is dissolved in dry dimethylformamide and the resulting solution intimately contacted with RCOX. The order of addition is not critical. The resulting mixture is stirred at room temperature for about 16 to 20 hours (conveniently overnight) whereupon a reaction takes place with the formation of Compound I. At the end of this period, the dimethylformamide is removed by concentrating in vacuo at 40°C and the resulting residue triturated, preferably sequentially, twice with ether, and then filtered. The filter cake product is generally a free flowing solid and is purified by reverse phase HPLC, typically in 0.5 gram aliquots employing acetonitrile/water as eluting agent. Fractions containing the purified product as determined by C. albicans assay, by U.V. or by refractive index are combined and first concentrated under reduced pressure and then lyophilized to separate the product.

Starred links: 1 amine or outer side, 2 acyl side, 3 side chain; linkers in the order of their positions; H or OH if unused. Positions of bridges follow the written chain, without caps; N, C: chain ends. Non-standard residues stand in square brackets, D forms with d. Residues, ends and D or L forms follow the SMILES beside them. ξ: configuration not given here. ξOrn(4,5-diOH) = O=C(C(CC(O)C(O)N[*:3])N[*:1])[*:2]; ξhTyr(βξ-OH,γξ-OH) = NC(C(=O)O)C(O)C(O)c1ccc(O)cc1; X1 = NC(=O)CC(O)C(N[*:1])C(=O)[*:2]; X2 = O=C(C1C(O)CCN1[*:1])[*:2]; Hyp = O=C(O)[CH]1C[CH](O)CN1

Regarding `CC(O)C1NC(=O)C(N)CC(O)C(O)NC(=O)C2C(O)CCN2C(=O)C(C(O)CC(N)=O)NC(=O)C(C(O)C(O)c2ccc(O)cc2)NC(=O)C2CC(O)CN2C1=O` (stereo not drawn) [non-acylated cyclohexapeptide compound] (H-[ξOrn(4,5-diOH)]T[Hyp][ξhTyr(βξ-OH,γξ-OH)][X1][X2]; lactam 1-C; configuration not given here), the “activity against Candida albicans” value was “inactive”.

(Values after patent EP0447186A1, “N-acylated cyclohexapeptide compounds” (MERCK & CO. INC., priority 1990, dated 1991).)
